Assay in all cases: Cell viability assay
Common to all, as to assay type: cell-based

The test system of one test is MIA PaCa-2. The following applies: Homo sapiens, MIA PaCa-2, 72 h, read-out: IC50 MIA PaCa-2.
In another test the test system is KPC. The following applies: 72 h, read-out: IC50 KPC.
Another test concerns Panc-1. To be noted: Homo sapiens, PANC-1, 72 h, read-out: IC50 Panc-1, 72 hours, CCK-8.

Data on one compound can be found in article PMC12409781 (RSC Advances, 2025).

Structures are written as SMILES.

As usually defined, the IC50 is the concentration that gives 50% inhibition. Regarding `Nc1ccn([C@@H]2O[C@H](CO)[C@@H](O)C2(F)F)c(=O)n1` [Gemcitabine], the values for the IC50 in the test with MIA PaCa-2, in the test on KPC and in the test on Panc-1 were 7.83 ± 0.28 µM, 5.36 ± 0.25 µM and 11.6 ± 0.56 µM, respectively.
